# In patent publication US20250129430A1, “HIGH ATP-AFFINITY PROTEIN AS THERAPEUTIC TARGET FOR INTRACTABLE CANCER MOLECULAR SUBTYPES AND INHIBITOR THEREOF” (VeraVerse Co., Ltd., priority 2021, published 2025):
# Where a name gives a salt, the structure may show the parent alone.
# Columns and labels:
# Assay in all cases: Cell viability drug screen, 12-point dose-response AUC
# Assay type in all cases: cell-based, human
# FU97 = system: FU97; parameters: Average Area Under the Viability Curve (AUC), AUC norm value: scale not given here; details: FU97 cells, 72 hours
# How it was run: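 Trapezoidal AUC of a 12-point, DMSO-normalized dose-response curve. Luminescent viability was measured after 72 h of exposure at 37° C to half-log serial dilutions (0.5% DMSO control), dosed 24 h after plating FU97 cells at 5×10^3 per well.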
# SNU216 = details: 72 hours; for Average Area Under the Viability Curve (AUC), AUC norm value: SNU216 cells (non-SEM subtype)
# How it was run: (§1)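 Gastric cancer lines seeded 5×10^3 cells/well, dosed after 24 h with half-log 12-point compound dilutions (DMSO 0.5% control), then 72 h at 37 °C. Viability by luminescence, normalized to DMSO; AUC by trapezoidal method, averaged over repeats.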
# NCC24 = NCC24 cells, 72 hours
# How it was run: (§2)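 Twelve half-log concentrations per compound were tested on gastric cancer cells with an EMT phenotype (5×10^3/well, dosed 24 h post-seeding). Viability after 72 h was quantified via luminescence relative to 0.5% DMSO, and repeats were averaged.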
# MKN45 = details: 72 hours; for Average Area Under the Viability Curve (AUC), AUC norm value: MKN45 cells (non-SEM subtype)
# How it was run: as §1
# NCI_N87 = NCI_N87 cells, 72 hours
# How it was run: as §2
# SNU16 = SNU16 cells, 72 hours
# How it was run: as §2
# NCC19 = NCC19 cells, 72 hours
# How it was run: as §2
# AGS = details: 72 hours; for Average Area Under the Viability Curve (AUC), AUC norm value: AGS cells (non-SEM subtype)
# How it was run: as §1
# KATO3 = KATO3 cells, 72 hours
# How it was run: as §2
# SNU1 = SNU1 cells, 72 hours
# How it was run: as §2
# SK4 = details: 72 hours; for Average Area Under the Viability Curve (AUC), AUC norm value: SK4 cells (SEM subtype)
# How it was run: as §2
# MKN74 = MKN74 cells, 72 hours
# How it was run: as §1
# MKN1 = MKN1 cells, 72 hours
# How it was run: as §2
# Hs746T = details: 72 hours; for Average Area Under the Viability Curve (AUC), AUC norm value: Hs746T cells (SEM subtype)
# How it was run: as §2
# SNU601 = SNU601 cells, 72 hours
# How it was run: as §2
# YCC2 = YCC2 cells, 72 hours
# How it was run: as §2
# SNU1967 = SNU1967 cells, 72 hours
# How it was run: as §2
# SNU719 = SNU719 cells, 72 hours
# How it was run: as §1
# YCC3 = YCC3 cells, 72 hours
# How it was run: as §2
# SNU668 = details: 72 hours; for Average Area Under the Viability Curve (AUC), AUC norm value: SNU668 cells (SEM subtype)
# How it was run: as §2
# NCC20 = NCC20 cells, 72 hours
# How it was run: as §2
# YCC11 = details: 72 hours; for Average Area Under the Viability Curve (AUC), AUC norm value: YCC11 cells (SEM subtype)
# How it was run: as §2
# SNU484 = details: 72 hours; for Average Area Under the Viability Curve (AUC), AUC norm value: SNU484 cells (SEM subtype)
# How it was run: as §2
# SNU1750 = details: 72 hours; for Average Area Under the Viability Curve (AUC), AUC norm value: SNU1750 cells (SEM subtype)
# How it was run: as §2
# SNU638 = SNU638 cells, 72 hours
# How it was run: as §2
# MKN28 = MKN28 cells, 72 hours
# How it was run: as §2
# SNU620 = SNU620 cells, 72 hours
# How it was run: as §2
# OCUM1 = OCUM1 cells, 72 hours
# How it was run: as §2
# NCC59 = NCC59 cells, 72 hours
# How it was run: as §2
smiles,measurement,setting,value
CC(C)C[C@H](NC(=O)CNC(=O)c1cc(Cl)ccc1Cl)B1OC(=O)C(CC(=O)O)(CC(=O)O)O1 [MLN9708],"Average Area Under the Viability Curve (AUC), AUC norm value",FU97,−1.568
same,"Average Area Under the Viability Curve (AUC), AUC norm value",SNU216,0.1416
same,"Average Area Under the Viability Curve (AUC), AUC norm value",NCC24,−0.9085
same,"Average Area Under the Viability Curve (AUC), AUC norm value",MKN45,0.2581
same,"Average Area Under the Viability Curve (AUC), AUC norm value",NCI_N87,1.9321
same,"Average Area Under the Viability Curve (AUC), AUC norm value",SNU16,−2.259
same,"Average Area Under the Viability Curve (AUC), AUC norm value",NCC19,−0.7913
same,"Average Area Under the Viability Curve (AUC), AUC norm value",AGS,−0.6988
same,"Average Area Under the Viability Curve (AUC), AUC norm value",KATO3,0.559
same,"Average Area Under the Viability Curve (AUC), AUC norm value",SNU1,0.02493
same,"Average Area Under the Viability Curve (AUC), AUC norm value",SK4,0.4078
same,"Average Area Under the Viability Curve (AUC), AUC norm value",MKN74,−0.4008
same,"Average Area Under the Viability Curve (AUC), AUC norm value",MKN1,0.06734
same,"Average Area Under the Viability Curve (AUC), AUC norm value",Hs746T,−1.547
same,"Average Area Under the Viability Curve (AUC), AUC norm value",SNU601,0
same,"Average Area Under the Viability Curve (AUC), AUC norm value",YCC2,0.3377
same,"Average Area Under the Viability Curve (AUC), AUC norm value",SNU1967,−1.556
same,"Average Area Under the Viability Curve (AUC), AUC norm value",SNU719,1.304
same,"Average Area Under the Viability Curve (AUC), AUC norm value",YCC3,2.717
same,"Average Area Under the Viability Curve (AUC), AUC norm value",SNU668,1.232
same,"Average Area Under the Viability Curve (AUC), AUC norm value",NCC20,−1.527
same,"Average Area Under the Viability Curve (AUC), AUC norm value",YCC11,−1.824
same,"Average Area Under the Viability Curve (AUC), AUC norm value",SNU484,−1.069
same,"Average Area Under the Viability Curve (AUC), AUC norm value",SNU1750,−2.161
same,"Average Area Under the Viability Curve (AUC), AUC norm value",SNU638,0.0059
same,"Average Area Under the Viability Curve (AUC), AUC norm value",MKN28,0.1368
same,"Average Area Under the Viability Curve (AUC), AUC norm value",SNU620,−0.7036
same,"Average Area Under the Viability Curve (AUC), AUC norm value",OCUM1,2.097
same,"Average Area Under the Viability Curve (AUC), AUC norm value",NCC59,−0.3472
O=C1c2c(O)ccc(O)c2C(=O)c2c(NCCNCCO)ccc(NCCNCCO)c21 [Mitoxantrone Hydrochloride],"area under the viability curve (AUC), normalized",FU97; 12-point dose-response,0.4542
same,"area under the viability curve (AUC), normalized","SNU216; SNU216 cells, 12-point dose-response",1.1656
same,"area under the viability curve (AUC), normalized",NCC24; 12-point dose-response,−1.038
same,"area under the viability curve (AUC), normalized","MKN45; MKN45 cells, 12-point dose-response",2.014
same,"area under the viability curve (AUC), normalized",NCI_N87; 12-point dose-response,2.6755
same,"area under the viability curve (AUC), normalized",SNU16; 12-point dose-response,1.6
same,"area under the viability curve (AUC), normalized",NCC19; 12-point dose-response,2.884
same,"area under the viability curve (AUC), normalized","AGS; AGS cells, 12-point dose-response",−1.671
same,"area under the viability curve (AUC), normalized",KATO3; 12-point dose-response,4.807
same,"area under the viability curve (AUC), normalized",SNU1; 12-point dose-response,0
same,"area under the viability curve (AUC), normalized","SK4; SK4 cells, 12-point dose-response",−0.6127
same,"area under the viability curve (AUC), normalized",MKN74; 12-point dose-response,−0.2914
same,"area under the viability curve (AUC), normalized",MKN1; 12-point dose-response,−1.197
same,"area under the viability curve (AUC), normalized","Hs746T; Hs746T cells, 12-point dose-response",0.5925
same,"area under the viability curve (AUC), normalized",SNU601; 12-point dose-response,−0.5251
same,"area under the viability curve (AUC), normalized",YCC2; 12-point dose-response,0.5126
same,"area under the viability curve (AUC), normalized",SNU1967; 12-point dose-response,−1.342
same,"area under the viability curve (AUC), normalized",SNU719; 12-point dose-response,3.647
same,"area under the viability curve (AUC), normalized",YCC3; 12-point dose-response,2.27
same,"area under the viability curve (AUC), normalized","SNU668; SNU668 cells, 12-point dose-response",−0.6581
same,"area under the viability curve (AUC), normalized",NCC20; 12-point dose-response,−0.7422
same,"area under the viability curve (AUC), normalized","YCC11; YCC11 cells, 12-point dose-response",−1.252
same,"area under the viability curve (AUC), normalized","SNU484; SNU484 cells, 12-point dose-response",−1.158
same,"area under the viability curve (AUC), normalized","SNU1750; SNU1750 cells, 12-point dose-response",−0.3587
same,"area under the viability curve (AUC), normalized",SNU638; 12-point dose-response,−1.06
same,"area under the viability curve (AUC), normalized",MKN28; 12-point dose-response,1.616
same,"area under the viability curve (AUC), normalized",SNU620; 12-point dose-response,−0.6012
same,"area under the viability curve (AUC), normalized",OCUM1; 12-point dose-response,0.8078
same,"area under the viability curve (AUC), normalized",NCC59; 12-point dose-response,1.001
"CCOc1cc2ncc(C#N)c(Nc3ccc(OCc4ccccn4)c(Cl)c3)c2cc1NC(=O)/C=C/CN(C)C [Neratinib (HKI-272), Neratinib]","Average Area Under the Viability Curve (AUC), AUC norm value",FU97,−0.2016
same,"Average Area Under the Viability Curve (AUC), AUC norm value",SNU216,−2.1011
same,"Average Area Under the Viability Curve (AUC), AUC norm value",NCC24,1.205
same,"Average Area Under the Viability Curve (AUC), AUC norm value",MKN45,3.029
same,"Average Area Under the Viability Curve (AUC), AUC norm value",NCI_N87,−5.051
same,"Average Area Under the Viability Curve (AUC), AUC norm value",SNU16,−1.491
same,"Average Area Under the Viability Curve (AUC), AUC norm value",NCC19,2.052
same,"Average Area Under the Viability Curve (AUC), AUC norm value",AGS,−0.9315
same,"Average Area Under the Viability Curve (AUC), AUC norm value",KATO3,1.505
same,"Average Area Under the Viability Curve (AUC), AUC norm value",SNU1,1.038
same,"Average Area Under the Viability Curve (AUC), AUC norm value",SK4,−1.282
same,"Average Area Under the Viability Curve (AUC), AUC norm value",MKN74,−1.144
same,"Average Area Under the Viability Curve (AUC), AUC norm value",MKN1,−0.4985
same,"Average Area Under the Viability Curve (AUC), AUC norm value",Hs746T,−0.2204
same,"Average Area Under the Viability Curve (AUC), AUC norm value",SNU601,0.802
same,"Average Area Under the Viability Curve (AUC), AUC norm value",YCC2,−0.1749
same,"Average Area Under the Viability Curve (AUC), AUC norm value",SNU1967,0.8381
same,"Average Area Under the Viability Curve (AUC), AUC norm value",SNU719,1.894
same,"Average Area Under the Viability Curve (AUC), AUC norm value",YCC3,0.3013
same,"Average Area Under the Viability Curve (AUC), AUC norm value",SNU668,0.8456
same,"Average Area Under the Viability Curve (AUC), AUC norm value",NCC20,−1.6785
same,"Average Area Under the Viability Curve (AUC), AUC norm value",YCC11,−1.333
same,"Average Area Under the Viability Curve (AUC), AUC norm value",SNU484,−1.2895
same,"Average Area Under the Viability Curve (AUC), AUC norm value",SNU1750,−0.4123
same,"Average Area Under the Viability Curve (AUC), AUC norm value",SNU638,0
same,"Average Area Under the Viability Curve (AUC), AUC norm value",MKN28,0.1864
same,"Average Area Under the Viability Curve (AUC), AUC norm value",SNU620,1.117
same,"Average Area Under the Viability Curve (AUC), AUC norm value",OCUM1,1.056
same,"Average Area Under the Viability Curve (AUC), AUC norm value",NCC59,1.9785
